Reference: patent US11932636B2, “RAD51 inhibitors” (Cyteir Therapeutics, Inc., priority 2019, dated 2024)

Tested on: Daudi cells (AID positive)
Assay: Compound primary screening: cell death in AID positive Daudi cells (Cell-Titer Glo, Day 7)
Format: cell-based
Settings: Homo sapiens, 168 h; Daudi cells, AID positive; cell death on Day 7, Cell-Titer Glo; read-out: Cellular activity in AID + (Daudi)
Protocol: Example 149. Compound Primary Screening
AID expressing cells are dependent upon RAD51 for survival; inhibiting RAD51 in AID positive cells results in a cytotoxic effect.
A 96 well u-bottom plate was prepared by writing the experiment number, plate number, date and initials in the top right corner of the plate lid. With a sterile 300 ml reservoir, and 25 ml serological pipette, evaporation buffer media was pipetted into reservoir in 25 ml increments. Using the liquid handler, 150 ul of evaporation buffer media was pipetted from reservoir into rows A and H, and Columns 1 and 12 of the 96 well u-bottom plate. Cell cultures were counted to obtain the density of cells per ml, and the culture viability. The cell density information was used to obtain 1,000,000 cells from culture using a 5 mL serological pipette into an epi tube. The cell density information from the culture was used to calculate the number of cells and volume of media needed for the assay to seed 1250 cells in 130 ul of media per available culture well in the 96 well u-bottom plate. Rows B through F were used for cells (50 wells in total), with row G left for an empty media control. The calculation was overestimated by 10 mL to account for the dead volume in the 300 ml reservoir. Once the media volume was calculated, the appropriate volume of media was pipetted in 25 mL increments into the 250 mL bottle using a 25 mL serological pipette. The 250 ml bottle was capped tightly, and placed into a 37° C. water bath for 2 minutes. While the culture media was warming, 10 mL of fresh media was pipetted from the 500 mL culture media bottle into a sterile 25 mL reservoir. Using the Eppendorf multichannel pipette, 130 ul of media was pipetted from the 25 mL reservoir into row G of the 96 well u-bottom plate. Once the 250 mL bottle of media was warmed, the volume of culture needed was pipetted into the bottle, and mixed gently with a 25 mL serological pipette as to not create bubbles, and then the contents of the bottle were pipetted into a new 300 mL reservoir. Using the liquid handler, 130 ul of culture was pipetted from the 300 mL reservoir into rows B through F of the 96 well u-bottom plate. Once the culture was added, the plate was placed into a 37° C. incubator until the compound master plate was prepared for use.
Two 96 well u-bottom plates were prepared by writing the master plate name in the upper right corner of the plate lid. Labeling one DMSO master and the other Media Master. The compounds of interest were obtained from the laboratory freezer, and placed into a 25 well storage box with a lid, and set the box aside. The compounds were vortexed after thawing but before use. Using an automatic multichannel pipette, 20 ul of 100% DMSO was pipetted into wells B3-B11 through G3-G11 of the DMSO master plate. For each compound on the master plate, 50 ul of the compound were pipetted in the appropriate well of row 2 (reference plate map to determine appropriate well). A serial dilution was prepared beginning by aspirating 20 ul from row 2 and mixing with row 3, repeating until row 11 was reached. Using the liquid handler, 194 ul of Daudi media was dispensed into wells B2-B11 through G2-G11 of the Media master plate. Using the liquid handler, 6 ul from the DMSO master plate was aspirated and dispensed into the media master plate, mixing 100 ul twice.
Compounds from master plate were then added to the culture plate. The culture plates were removed from the incubator, and set inside the biosafety cabinet. Using a liquid handler, 20 ul from wells B2 to B11 through G2 to G11 of master plate were aspirated, and dispensed into wells B2 to B11 through G2 to G11 of culture plate. This set was continued with each culture plate. Once the culture plates acquired their 20 ul of compound dilutions, they were placed back into the incubator, until their reads on Day 7 of experiment.
Cell death was measured on Day 7 of the experiment using Cell-Titer Glo and a Promega Plate reader.

CC(C)OC(=O)N[C@H]1CC[C@H](c2ncc(-c3ccc(CN)cc3S(=O)(=O)NC(C)(C)C)s2)CC1 [Compound 1, isopropyl (trans-4-(5-(4-(aminomethyl)-2-(N-(tert-butyl)sulfamoyl)phenyl)thiazol-2-yl)cyclohexyl)carbamate] and CC(=O)NCc1ccc(-c2cnc([C@H]3CC[C@H](NC(=O)OC(C)C)CC3)s2)c(S(=O)(=O)NC(C)(C)C)c1 [Compound 2, isopropyl (trans-4-(5-(4-(acetamidomethyl)-2-(N-(tert-butyl)sulfamoyl)phenyl)thiazol-2-yl)cyclohexyl)carbamate] cannot be ordered by EC50: greater than 10 µM for the first, greater than 10 µM for the second.

First: CC(C)OC(=O)N[C@H]1CC[C@H](c2ncc(-c3ccc(-c4cnn5ccccc45)cc3S(=O)(=O)NC(C)(C)C)s2)CC1 [Compound 3, isopropyl (trans-4-(5-(2-(N-(tert-butyl)sulfamoyl)-4-(pyrazolo[1,5-a]pyridin-3-yl)phenyl)thiazol-2-yl)cyclohexyl)carbamate]
Second: CC(C)OC(=O)N[C@H]1CC[C@H](c2ncc(-c3ccc(-c4cccnc4)cc3S(=O)(=O)NC(C)(C)C)s2)CC1 [Compound 5, isopropyl (trans-4-(5-(2-(N-(tert-butyl)sulfamoyl)-4-(pyridin-3-yl)phenyl)thiazol-2-yl)cyclohexyl)carbamate]
The EC50 of the first is lower: 0.1 to 1 µM for the first, 1 to 10 µM for the second.

First: CC(C)OC(=O)N[C@H]1CC[C@H](c2ncc(-c3ccc(-c4cnn(CC(F)(F)F)c4)cc3S(=O)(=O)NC(C)(C)C)s2)CC1 [Compound 4, isopropyl (trans-4-(5-(2-(N-(tert-butyl)sulfamoyl)-4-(1-(2,2,2-trifluoroethyl)-1H-pyrazol-4-yl)phenyl)thiazol-2-yl)cyclohexyl)carbamate]
Second: CC(C)OC(=O)N[C@H]1CC[C@H](c2ncc(-c3ccc(-c4ccnc(C(F)(F)F)c4)cc3S(=O)(=O)NC(C)(C)C)s2)CC1 [Compound 22, isopropyl (trans-4-(5-(2-(N-(tert-butyl)sulfamoyl)-4-(2-(trifluoromethyl)pyridin-4-yl)phenyl)thiazol-2-yl)cyclohexyl)carbamate]
The EC50 of the first is lower: 0.1 to 1 µM for the first, 1 to 10 µM for the second. The first is the more potent here.

CC(C)OC(=O)N[C@H]1CC[C@H](c2ncc(-c3ccc(-c4cc[nH]n4)cc3S(=O)(=O)NC(C)(C)C)s2)CC1 [Compound 6, isopropyl (trans-4-(5-(2-(N-(tert-butyl)sulfamoyl)-4-(1H-pyrazol-3-yl)phenyl)thiazol-2-yl)cyclohexyl)carbamate] and Cc1[nH]ncc1-c1ccc(-c2cnc([C@H]3CC[C@H](NC(=O)OC(C)C)CC3)s2)c(S(=O)(=O)NC(C)(C)C)c1 [Compound 17, isopropyl (trans-4-(5-(2-(N-(tert-butyl)sulfamoyl)-4-(5-methyl-1H-pyrazol-4-yl)phenyl)thiazol-2-yl)cyclohexyl)carbamate] fall in the same range of EC50: 1 to 10 µM for the first, 1 to 10 µM for the second.

CC(C)OC(=O)N[C@H]1CC[C@H](c2ncc(-c3ccc(-c4ccc(O)nc4)cc3S(=O)(=O)NC(C)(C)C)s2)CC1 [Compound 7, isopropyl (trans-4-(5-(2-(N-(tert-butyl)sulfamoyl)-4-(6-hydroxypyridin-3-yl)phenyl)thiazol-2-yl)cyclohexyl)carbamate] and CC(C)OC(=O)N[C@H]1CC[C@H](c2ncc(-c3ccc(-c4ccc(CO)nc4)cc3S(=O)(=O)NC(C)(C)C)s2)CC1 [Compound 20, isopropyl (trans-4-(5-(2-(N-(tert-butyl)sulfamoyl)-4-(6-(hydroxymethyl)pyridin-3-yl)phenyl)thiazol-2-yl)cyclohexyl)carbamate] fall in the same range of EC50: 1 to 10 µM for the first, 1 to 10 µM for the second.

COc1ncc(-c2ccc(-c3cnc([C@H]4CC[C@H](NC(=O)OC(C)C)CC4)s3)c(S(=O)(=O)NC(C)(C)C)c2)c(OC)n1 [Compound 8, isopropyl (trans-4-(5-(2-(N-(tert-butyl)sulfamoyl)-4-(2,4-dimethoxypyrimidin-5-yl)phenyl)thiazol-2-yl)cyclohexyl)carbamate] and COc1cc(-c2ccc(-c3cnc([C@H]4CC[C@H](NC(=O)OC(C)C)CC4)s3)c(S(=O)(=O)NC(C)(C)C)c2)c(OC)nn1 [Compound 13, isopropyl (trans-4-(5-(2-(N-(tert-butyl)sulfamoyl)-4-(3,6-dimethoxypyridazin-4-yl)phenyl)thiazol-2-yl)cyclohexyl)carbamate] fall in the same range of EC50: 0.1 to 1 µM for the first, 0.1 to 1 µM for the second.

CC(C)OC(=O)N[C@H]1CC[C@H](c2ncc(-c3ccc(-c4ccc5c[nH]nc5c4)cc3S(=O)(=O)NC(C)(C)C)s2)CC1 [Compound 9, isopropyl (trans-4-(5-(2-(N-(tert-butyl)sulfamoyl)-4-(2H-indazol-6-yl)phenyl)thiazol-2-yl)cyclohexyl)carbamate] and Cc1c[nH]c2cc(-c3ccc(-c4cnc([C@H]5CC[C@H](NC(=O)OC(C)C)CC5)s4)c(S(=O)(=O)NC(C)(C)C)c3)ccc12 [Compound 21, isopropyl (trans-4-(5-(2-(N-(tert-butyl)sulfamoyl)-4-(3-methyl-1H-indol-6-yl)phenyl)thiazol-2-yl)cyclohexyl)carbamate] fall in the same range of EC50: 1 to 10 µM for the first, 1 to 10 µM for the second.

Compared with CC(C)OC(=O)N[C@H]1CC[C@H](c2ncc(-c3ccc(-c4cnc(N)nc4)cc3S(=O)(=O)NC(C)(C)C)s2)CC1 [Compound 10, isopropyl (trans-4-(5-(4-(2-aminopyrimidin-5-yl)-2-(N-(tert-butyl)sulfamoyl)phenyl)thiazol-2-yl)cyclohexyl)carbamate], CC(C)OC(=O)N[C@H]1CC[C@H](c2ncc(-c3ccc(-c4cncnc4)cc3S(=O)(=O)NC(C)(C)C)s2)CC1 [Compound 12, isopropyl (trans-4-(5-(2-(N-(tert-butyl)sulfamoyl)-4-(pyrimidin-5-yl)phenyl)thiazol-2-yl)cyclohexyl)carbamate] is higher in EC50: 0.1 to 1 µM for the first, greater than 10 µM for the second. The first is the more potent here.

CC(C)OC(=O)N[C@H]1CC[C@H](c2ncc(-c3ccc(-c4ccc5occc5c4)cc3S(=O)(=O)NC(C)(C)C)s2)CC1 [Compound 11, isopropyl (trans-4-(5-(4-(benzofuran-5-yl)-2-(N-(tert-butyl)sulfamoyl)phenyl)thiazol-2-yl)cyclohexyl)carbamate] and CC(C)OC(=O)N[C@H]1CC[C@H](c2ncc(-c3ccc(-c4ccc5ncsc5c4)cc3S(=O)(=O)NC(C)(C)C)s2)CC1 [Compound 15, isopropyl (trans-4-(5-(4-(benzo[d]thiazol-6-yl)-2-(N-(tert-butyl)sulfamoyl)phenyl)thiazol-2-yl)cyclohexyl)carbamate] fall in the same range of EC50: 1 to 10 µM for the first, 1 to 10 µM for the second.

Cc1ncc(-c2ccc(-c3cnc([C@H]4CC[C@H](NC(=O)OC(C)C)CC4)s3)c(S(=O)(=O)NC(C)(C)C)c2)s1 [Compound 14, isopropyl (trans-4-(5-(2-(N-(tert-butyl)sulfamoyl)-4-(2-methylthiazol-5-yl)phenyl)thiazol-2-yl)cyclohexyl)carbamate] and CC(C)OC(=O)N[C@H]1CC[C@H](c2ncc(-c3ccc(-c4ccc(C#N)nc4)cc3S(=O)(=O)NC(C)(C)C)s2)CC1 [Compound 18, isopropyl (trans-4-(5-(2-(N-(tert-butyl)sulfamoyl)-4-(6-cyanopyridin-3-yl)phenyl)thiazol-2-yl)cyclohexyl)carbamate] fall in the same range of EC50: 1 to 10 µM for the first, 1 to 10 µM for the second.

First: CC(C)OC(=O)N[C@H]1CC[C@H](c2ncc(-c3ccc(-c4cncc(CN(C)C)c4)cc3S(=O)(=O)NC(C)(C)C)s2)CC1 [Compound 16, isopropyl (trans-4-(5-(2-(N-(tert-butyl)sulfamoyl)-4-(5-((dimethylamino)methyl)pyridin-3-yl)phenyl)thiazol-2-yl)cyclohexyl)carbamate]
Second: CC(C)OC(=O)N[C@H]1CC[C@H](c2ncc(-c3ccc(-c4ccc5nn[nH]c5c4)cc3S(=O)(=O)NC(C)(C)C)s2)CC1 [Compound 19, isopropyl (trans-4-(5-(4-(1H-benzo[d][1,2,3]triazol-6-yl)-2-(N-(tert-butyl)sulfamoyl)phenyl)thiazol-2-yl)cyclohexyl)carbamate]
The EC50 of the first is lower: 1 to 10 µM for the first, greater than 10 µM for the second.
